The test system of this test is siRNA. Nature of the test: Fluorescence spectroscopy of peptide-siRNA interaction. The test is classed as binding. On the procedure: The peptide C6M1 was used in this experiment to study the interaction between peptide and siRNA using fluorescence spectroscopy method. C6M1 has four tryptophan amino acids which can be used as fluorescence probe. […] A blue shift from 355 to 330 nm was also observed in molar ratios of less than 40:1, clearly at 20:1 and 10:1, probably due to the change in the environment of tryptophan by adding more hydrophilic siRNA molecules.
A similar experiment was also performed by tracking the fluorescence property of labeled siRNA, interacting with C6M1. […] The red shift could also be an indicator of a change in the siRNA environment and/or conformational change in siRNA structure upon interacting with peptides.

This is an account of results in patent publication US9950073B2, “Peptide sequence design and use thereof for peptide-mediated siRNA delivery” (Positec Power Tools (Suzhou) Co Ltd, priority 2011, dated 2018).

In the case of RLWRLLWRLWRRLWRLLR (C6M1), under “fixed C6M1 concentration, more siRNA added”, the “tryptophan fluorescence intensity of C6M1 on adding siRNA” value is recorded as “intensity of fluorescence decreased”. Further, where the note is “low molar ratios of 2:1 and 4:1”, the “fluorescence spectra of labeled siRNA” value is reported as “no significant change”. Moreover, under “molar ratios of 10:1 and 20:1”, the “fluorescence intensity of labeled siRNA” value is listed as “intensity decreased”. Besides, the “blue shift of fluorescence” value (molar ratios of less than 40:1, clearly at 20:1 and 10:1) was 355 to 330 nm.
